Active and inactive are the calls of the source.
Columns and labels:
[1] = target: FAD-linked sulfhydryl oxidase ALR (Homo sapiens, UniProt P55789); test: inhibitors of human ALR sulfhydryl oxidase, dose response, biochemical, H2O2 detection, luminescence, cherry-pick (AID 493248)
Genome polyprotein = Genome polyprotein (dengue virus type 2, UniProt P29990); test: Dengue-2 NS5 methyltransferase inhibitors, primary screen, biochemical, confirmation dose response (AID 588689); format: functional
Coagulation factor XII = target: T1, Coagulation factor XII (Homo sapiens, UniProt P00748); format: functional;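 further: activated factor XIIa alpha cleaving a fluorogenic AMC peptide substrate; inhibitor potency from loss of enzyme activity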
T1 sequence (P00748 whole entry): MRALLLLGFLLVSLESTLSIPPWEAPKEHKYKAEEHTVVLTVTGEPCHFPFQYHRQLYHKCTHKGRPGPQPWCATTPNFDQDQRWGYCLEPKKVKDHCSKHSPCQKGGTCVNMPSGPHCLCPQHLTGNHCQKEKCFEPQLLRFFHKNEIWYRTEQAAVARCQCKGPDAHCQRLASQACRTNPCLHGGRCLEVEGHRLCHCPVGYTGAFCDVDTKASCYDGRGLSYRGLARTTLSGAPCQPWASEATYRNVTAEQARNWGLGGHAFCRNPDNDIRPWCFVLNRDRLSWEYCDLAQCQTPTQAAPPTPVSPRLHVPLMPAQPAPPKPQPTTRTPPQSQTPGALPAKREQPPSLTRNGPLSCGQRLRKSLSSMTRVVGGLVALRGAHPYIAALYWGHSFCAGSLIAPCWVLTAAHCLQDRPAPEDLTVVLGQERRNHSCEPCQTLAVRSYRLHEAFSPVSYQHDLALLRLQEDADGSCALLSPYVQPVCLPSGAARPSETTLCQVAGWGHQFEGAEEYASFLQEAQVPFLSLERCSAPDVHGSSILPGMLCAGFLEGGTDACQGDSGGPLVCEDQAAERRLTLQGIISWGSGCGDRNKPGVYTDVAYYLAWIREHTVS

Leucine aminopeptidase = target: T2, Leucine aminopeptidase (Plasmodium falciparum 3D7, UniProt Q8IL11); test: P. falciparum M17LAP inhibitors, primary screen, biochemical, fluorogenic H-Leu-NHMec substrate, 1536-well (AID 1619); format: functional
T2 sequence (Q8IL11 whole entry): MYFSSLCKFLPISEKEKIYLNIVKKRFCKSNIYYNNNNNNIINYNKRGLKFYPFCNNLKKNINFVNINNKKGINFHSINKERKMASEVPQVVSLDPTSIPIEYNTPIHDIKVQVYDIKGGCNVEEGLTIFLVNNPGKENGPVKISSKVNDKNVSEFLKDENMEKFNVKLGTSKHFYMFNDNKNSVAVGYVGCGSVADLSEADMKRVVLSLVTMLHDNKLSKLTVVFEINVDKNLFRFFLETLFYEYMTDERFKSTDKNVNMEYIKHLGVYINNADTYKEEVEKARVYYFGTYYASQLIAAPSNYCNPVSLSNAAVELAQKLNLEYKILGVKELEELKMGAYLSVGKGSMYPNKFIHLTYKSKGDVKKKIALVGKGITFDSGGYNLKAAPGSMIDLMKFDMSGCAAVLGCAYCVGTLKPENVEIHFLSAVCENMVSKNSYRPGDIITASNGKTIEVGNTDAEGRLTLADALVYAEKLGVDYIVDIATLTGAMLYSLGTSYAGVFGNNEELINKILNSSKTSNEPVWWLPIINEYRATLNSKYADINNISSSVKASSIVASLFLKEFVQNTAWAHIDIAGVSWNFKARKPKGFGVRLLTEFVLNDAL

Large T antigen = Large T antigen (Simian virus 40, UniProt P03070); format: functional, Betapolyomavirus macacae;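 further: Confirmatory-stage PubChem screen for compounds that inhibit SV40 T antigen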
[2] = target: T3, Rac GTPase-activating protein 1 (Homo sapiens, UniProt Q9H0H5); test: MgcRacGAP GTPase-activating activity inhibitors, confirmation, biochemical, ADP Hunter fluorescence, primary and confirmatory (AID 624330); format: functional
T3 sequence (Q9H0H5 whole entry): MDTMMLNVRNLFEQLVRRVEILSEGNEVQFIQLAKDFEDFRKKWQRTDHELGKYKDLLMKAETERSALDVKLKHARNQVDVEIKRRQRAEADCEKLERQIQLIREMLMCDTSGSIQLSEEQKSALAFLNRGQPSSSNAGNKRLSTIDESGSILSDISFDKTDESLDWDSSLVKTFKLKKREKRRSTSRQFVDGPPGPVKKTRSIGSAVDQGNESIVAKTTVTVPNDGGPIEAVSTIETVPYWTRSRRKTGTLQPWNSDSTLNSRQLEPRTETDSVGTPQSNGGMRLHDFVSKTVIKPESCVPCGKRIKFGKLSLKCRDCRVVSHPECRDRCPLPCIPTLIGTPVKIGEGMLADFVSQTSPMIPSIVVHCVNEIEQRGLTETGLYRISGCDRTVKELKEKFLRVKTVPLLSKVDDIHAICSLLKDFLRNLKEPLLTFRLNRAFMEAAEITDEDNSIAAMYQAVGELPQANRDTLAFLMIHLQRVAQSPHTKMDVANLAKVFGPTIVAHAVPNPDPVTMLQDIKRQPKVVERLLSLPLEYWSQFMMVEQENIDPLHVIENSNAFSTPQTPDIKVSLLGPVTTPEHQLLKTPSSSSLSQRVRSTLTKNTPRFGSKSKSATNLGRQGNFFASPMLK

[3] = target: Luciferin 4-monooxygenase (Photinus pyralis, UniProt P08659); test: firefly luciferase enzyme inhibitors, dose response, biochemical, luminescence (AID 1891)
[4] = Luminescence Cell-Based Dose Confirmation HTS to Identify Inhibitors of Platelet Dense Granule Release. [Related pubchem assays: 1663 (Primary HTS), 1678 (Summary of Project)]; format: functional
[5] = Shn3 3'UTR reporter inhibitors, dose response, cell-based, Clone20 osteoblasts, firefly luciferase, cherry-picked (AID 624132); format: functional;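 further: firefly luciferase luminescence from reporter carrying the Shn3 3'UTR in osteoblasts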
[6] = control 3'UTR Renilla luciferase suppression, dose response, counter-screen for Shn3 inhibitor project, cell-based, Clone20-Shn3RL, cherry-picked (AID 624133); format: functional
[7] = HEp-2 cell cytotoxicity, dose response, cytotoxicity control for RSV inhibitor project, HTS (AID 2410); format: functional; conditions: human respiratory syncytial virus
[8] = growth suppression of PTEN-null colon cells, dose response, cell-based, HCT116 PTEN knockout (AID 1047); format: functional;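 further: HCT116 colon tumor cells with PTEN knocked out; cells exposed to compound for 60 hours before readout; potency for loss of cell viability measured by luminescence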
[9] = growth suppression of beta-catenin-knockout colon cells, dose response, cell-based, HCT116, human colon tumor (AID 1045); format: functional;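 further: HCT116 colon tumor cells with beta catenin knocked out; cells exposed to compound for 60 hours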
Cytochrome P450 1A2 = target: T4, Cytochrome P450 1A2 (Homo sapiens, UniProt P05177);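 further: PubChem cytochrome P450 panel assay, CYP1A2 panel member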
T4 sequence (P05177 whole entry): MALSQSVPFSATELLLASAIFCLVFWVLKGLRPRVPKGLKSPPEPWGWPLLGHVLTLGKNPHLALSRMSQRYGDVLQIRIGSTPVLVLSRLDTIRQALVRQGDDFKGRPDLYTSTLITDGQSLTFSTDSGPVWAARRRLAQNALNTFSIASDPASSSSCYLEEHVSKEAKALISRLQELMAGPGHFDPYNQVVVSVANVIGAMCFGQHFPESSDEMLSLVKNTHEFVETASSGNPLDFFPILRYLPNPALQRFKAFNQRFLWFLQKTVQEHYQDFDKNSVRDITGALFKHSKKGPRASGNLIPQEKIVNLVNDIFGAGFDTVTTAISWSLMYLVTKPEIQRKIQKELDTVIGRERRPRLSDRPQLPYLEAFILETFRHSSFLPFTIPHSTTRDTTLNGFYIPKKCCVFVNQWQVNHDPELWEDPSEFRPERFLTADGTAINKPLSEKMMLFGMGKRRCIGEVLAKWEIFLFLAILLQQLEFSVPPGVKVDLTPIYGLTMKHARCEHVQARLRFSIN

Cytochrome P450 3A4 = Cytochrome P450 3A4 (Homo sapiens, UniProt P08684);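 further: CYP3A4 tested as one member of a cytochrome P450 panel screen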
Cytochrome P450 2C9 = Cytochrome P450 2C9 (Homo sapiens, UniProt P11712)
Cytochrome P450 2C19 = Cytochrome P450 2C19 (Homo sapiens, UniProt P33261); test: Cytochrome panel assay with activity outcomes. Panel member name: p450-cyp2c19 Compounds with AC50 equal or less than 10 uM are considered active; format: functional; conditions: read-out: AC50
Cytochrome P450 2C19, sequence (P33261 whole entry): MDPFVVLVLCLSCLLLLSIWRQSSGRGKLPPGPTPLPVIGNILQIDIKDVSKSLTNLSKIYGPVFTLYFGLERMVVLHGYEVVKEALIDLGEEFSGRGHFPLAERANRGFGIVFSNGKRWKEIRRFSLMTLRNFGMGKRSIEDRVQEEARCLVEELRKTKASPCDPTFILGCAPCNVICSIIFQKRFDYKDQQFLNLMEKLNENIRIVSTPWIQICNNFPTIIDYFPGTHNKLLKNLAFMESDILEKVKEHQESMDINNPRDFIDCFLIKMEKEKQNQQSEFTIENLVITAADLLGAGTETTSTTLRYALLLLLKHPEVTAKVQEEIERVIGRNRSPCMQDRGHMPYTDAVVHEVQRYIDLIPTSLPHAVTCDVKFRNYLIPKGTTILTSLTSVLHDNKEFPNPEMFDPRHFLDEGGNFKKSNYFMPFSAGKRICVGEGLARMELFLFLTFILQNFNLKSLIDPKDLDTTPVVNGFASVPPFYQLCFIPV

Genome polyprotein, sequence (P29990 2492-3391 limits assumed): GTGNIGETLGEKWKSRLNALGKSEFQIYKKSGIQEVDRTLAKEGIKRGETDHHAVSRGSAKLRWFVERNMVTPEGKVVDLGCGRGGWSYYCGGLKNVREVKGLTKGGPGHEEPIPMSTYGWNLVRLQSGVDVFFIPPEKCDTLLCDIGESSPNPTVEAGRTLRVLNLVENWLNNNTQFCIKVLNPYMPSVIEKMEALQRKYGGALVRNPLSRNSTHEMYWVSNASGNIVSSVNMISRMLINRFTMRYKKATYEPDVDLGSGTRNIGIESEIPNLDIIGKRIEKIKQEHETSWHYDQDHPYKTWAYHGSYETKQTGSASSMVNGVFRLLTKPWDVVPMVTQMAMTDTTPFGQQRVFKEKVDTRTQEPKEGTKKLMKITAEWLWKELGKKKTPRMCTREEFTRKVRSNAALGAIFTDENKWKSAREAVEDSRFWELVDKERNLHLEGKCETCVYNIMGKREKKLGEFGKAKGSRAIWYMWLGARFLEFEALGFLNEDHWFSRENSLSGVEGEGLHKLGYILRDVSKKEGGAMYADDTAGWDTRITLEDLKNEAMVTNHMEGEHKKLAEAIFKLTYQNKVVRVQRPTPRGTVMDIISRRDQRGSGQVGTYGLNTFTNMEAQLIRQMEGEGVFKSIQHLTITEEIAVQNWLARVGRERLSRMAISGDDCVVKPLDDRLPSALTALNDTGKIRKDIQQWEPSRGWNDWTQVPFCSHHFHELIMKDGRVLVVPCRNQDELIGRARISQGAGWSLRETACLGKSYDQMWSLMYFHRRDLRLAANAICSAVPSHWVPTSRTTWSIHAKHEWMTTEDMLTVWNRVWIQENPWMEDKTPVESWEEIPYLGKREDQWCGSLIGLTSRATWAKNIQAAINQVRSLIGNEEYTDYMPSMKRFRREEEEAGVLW
Large T antigen, sequence (P03070 whole entry): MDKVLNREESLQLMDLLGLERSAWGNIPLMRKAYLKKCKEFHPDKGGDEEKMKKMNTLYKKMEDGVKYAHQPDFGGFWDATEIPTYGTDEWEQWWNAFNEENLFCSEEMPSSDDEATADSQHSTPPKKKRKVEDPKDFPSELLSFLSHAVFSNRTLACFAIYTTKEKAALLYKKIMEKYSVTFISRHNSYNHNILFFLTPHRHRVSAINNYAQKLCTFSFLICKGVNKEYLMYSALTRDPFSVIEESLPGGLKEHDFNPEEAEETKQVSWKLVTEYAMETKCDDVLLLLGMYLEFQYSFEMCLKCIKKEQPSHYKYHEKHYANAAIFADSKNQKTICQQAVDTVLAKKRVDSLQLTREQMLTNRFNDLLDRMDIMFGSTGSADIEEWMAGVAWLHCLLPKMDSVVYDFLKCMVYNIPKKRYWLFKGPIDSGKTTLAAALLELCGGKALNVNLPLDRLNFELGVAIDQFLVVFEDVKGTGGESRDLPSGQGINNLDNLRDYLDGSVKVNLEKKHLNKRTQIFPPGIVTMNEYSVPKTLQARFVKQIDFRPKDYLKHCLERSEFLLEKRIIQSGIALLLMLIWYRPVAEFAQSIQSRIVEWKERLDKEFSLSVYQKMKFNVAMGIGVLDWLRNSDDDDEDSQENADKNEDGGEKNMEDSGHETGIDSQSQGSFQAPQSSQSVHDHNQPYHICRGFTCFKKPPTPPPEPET
Cytochrome P450 3A4, sequence (P08684 whole entry): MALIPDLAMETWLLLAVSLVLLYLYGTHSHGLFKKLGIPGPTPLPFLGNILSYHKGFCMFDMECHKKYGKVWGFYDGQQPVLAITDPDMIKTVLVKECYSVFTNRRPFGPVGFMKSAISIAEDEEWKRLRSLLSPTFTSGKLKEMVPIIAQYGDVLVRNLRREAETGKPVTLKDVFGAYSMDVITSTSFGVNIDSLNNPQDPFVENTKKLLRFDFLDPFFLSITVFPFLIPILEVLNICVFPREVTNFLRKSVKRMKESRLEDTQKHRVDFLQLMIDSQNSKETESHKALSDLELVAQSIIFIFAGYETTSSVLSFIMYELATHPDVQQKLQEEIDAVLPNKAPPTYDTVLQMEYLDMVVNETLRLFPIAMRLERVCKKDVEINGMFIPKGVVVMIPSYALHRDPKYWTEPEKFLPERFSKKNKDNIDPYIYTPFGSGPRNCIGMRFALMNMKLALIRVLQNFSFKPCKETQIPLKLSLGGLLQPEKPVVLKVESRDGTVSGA
Cytochrome P450 2C9, sequence (P11712 whole entry): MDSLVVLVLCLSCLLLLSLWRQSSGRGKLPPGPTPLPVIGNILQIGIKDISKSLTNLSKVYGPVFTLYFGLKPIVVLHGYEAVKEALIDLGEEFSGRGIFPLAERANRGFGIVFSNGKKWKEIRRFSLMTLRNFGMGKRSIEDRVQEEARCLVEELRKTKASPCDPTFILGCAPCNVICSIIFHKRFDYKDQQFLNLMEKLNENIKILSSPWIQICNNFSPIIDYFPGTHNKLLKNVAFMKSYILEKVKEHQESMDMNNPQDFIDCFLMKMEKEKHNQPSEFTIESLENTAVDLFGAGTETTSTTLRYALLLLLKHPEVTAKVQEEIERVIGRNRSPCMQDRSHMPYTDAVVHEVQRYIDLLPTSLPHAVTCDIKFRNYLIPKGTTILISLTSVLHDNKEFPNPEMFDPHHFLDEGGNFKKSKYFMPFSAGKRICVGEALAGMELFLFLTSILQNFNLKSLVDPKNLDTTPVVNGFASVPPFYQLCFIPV
Luciferin 4-monooxygenase, sequence (P08659 whole entry): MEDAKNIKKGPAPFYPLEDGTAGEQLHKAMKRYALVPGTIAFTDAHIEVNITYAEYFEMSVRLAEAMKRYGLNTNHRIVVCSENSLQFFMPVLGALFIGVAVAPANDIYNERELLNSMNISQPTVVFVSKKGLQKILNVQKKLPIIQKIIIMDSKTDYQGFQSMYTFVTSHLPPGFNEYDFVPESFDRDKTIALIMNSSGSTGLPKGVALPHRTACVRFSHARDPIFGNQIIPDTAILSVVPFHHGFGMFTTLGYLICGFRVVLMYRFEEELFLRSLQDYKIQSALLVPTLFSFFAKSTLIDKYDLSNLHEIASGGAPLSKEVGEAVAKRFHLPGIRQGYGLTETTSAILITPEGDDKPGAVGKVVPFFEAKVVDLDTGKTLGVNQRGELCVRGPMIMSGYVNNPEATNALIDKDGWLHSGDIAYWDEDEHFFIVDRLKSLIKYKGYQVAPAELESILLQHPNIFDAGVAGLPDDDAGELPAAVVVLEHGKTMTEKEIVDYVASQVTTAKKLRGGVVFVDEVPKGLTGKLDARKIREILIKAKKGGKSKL
FAD-linked sulfhydryl oxidase ALR, sequence (P55789 whole entry): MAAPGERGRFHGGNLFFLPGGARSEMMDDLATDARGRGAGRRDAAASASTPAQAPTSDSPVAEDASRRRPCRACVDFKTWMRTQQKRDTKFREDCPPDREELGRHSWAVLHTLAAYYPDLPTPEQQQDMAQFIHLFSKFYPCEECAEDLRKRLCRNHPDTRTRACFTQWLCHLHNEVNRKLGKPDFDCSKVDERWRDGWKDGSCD

SMILES: O=C(NNc1cc(Br)c(O)c(Br)c1)c1ccccc1
- AC50 [1]: 0.192 µM (active)
- IC50 (Genome polyprotein): 63.2 µM (active)

SMILES: CC(C)c1cccc(-c2ccc3c(c2)S(=O)(=O)c2cccc(C(=O)O)c2C3=O)c1
- IC50 (Genome polyprotein): 66.2 µM (active)

SMILES: Cc1sc(NC(=O)c2ccco2)c(CN2CCN(c3ccc(F)cc3)CC2)c1C
- IC50 (Coagulation factor XII): > 50 µM (inactive)

SMILES: O=C(CN=C(S)N(Cc1ccccc1)Cc1ccccc1F)NCCc1ccccc1
- IC50 (Coagulation factor XII): > 50 µM (inactive)

SMILES: Nc1n[nH]c(SCC(=O)Nc2ccc3c(c2)CCC3)n1
- IC50 (Leucine aminopeptidase): 45.2 µM (active)

SMILES: C/N=c1\scc(C)n1/N=C/c1ccc(O)cc1
- IC50 (Large T antigen): 8.35 µM (active)
- IC50 [2]: 20.9 µM (active)

SMILES: COCCNC(=O)CC(NS(=O)(=O)c1ccc(C)cc1)c1ccco1 (stereo not given)
- IC50 (Coagulation factor XII): > 50 µM (inactive)

SMILES: Cc1c(C(=O)N2CCOCC2)sc2ncnc(N3CCc4ccccc4C3)c12
- EC50 [3]: > 112 µM (not active)
- EC50 [4]: > 112 µM (not active)
- IC50 (Coagulation factor XII): > 50 µM (inactive)

SMILES: O=C1NCCOC(=O)[C@@H](Cc2ccc(F)cc2)CC/C=C/C[C@@H]1CC(=O)N(CCO)Cc1ccccc1
- AC50 [5]: > 70 µM (inactive)
- AC50 [6]: 29.6 µM (active)

SMILES: Cc1ccc2cc(C=C3C(=O)NC(=O)NC3=O)c(O)nc2c1
- IC50 (Large T antigen): > 100 µM (active)
- IC50 (Genome polyprotein): 79 µM (active)

SMILES: O=C(c1ccco1)N1CCN(C(=O)c2[nH]ncc2[N+](=O)[O-])CC1
- IC50 (Leucine aminopeptidase): 2.22 µM (active)

SMILES: Cc1ccc2nc(NC(=O)C3CCCN(S(=O)(=O)c4cccc5nsnc45)C3)sc2c1 (stereo not given)
- CC50 [7]: 29.4 µM (active)
- IC50 (Coagulation factor XII): > 50 µM (inactive)

SMILES: Clc1ccccc1CNc1ncnc2nc[nH]c12
- IC50 (Leucine aminopeptidase): 48.3 µM (active)

SMILES: Nc1nc(-c2cccs2)c(NC(=O)c2ccccc2)s1
- IC50 (Large T antigen): 23.2 µM (active)
- EC50 [8]: 27.4 µM (active)
- EC50 [9]: 23.8 µM (active)

SMILES: O=C(N/N=C/c1ccc(O)c(O)c1)c1cccc(S(=O)(=O)N2CCCCC2)c1
- IC50 (Large T antigen): 4.75 µM (active)
- IC50 [2]: 85.3 µM (active)

SMILES: CC(=O)Nc1ccc(NC(=O)CSc2ncnn2-c2ccccc2)cc1
- IC50 (Coagulation factor XII): > 50 µM (inactive)
- AC50 (Cytochrome P450 1A2): 28.2 µM (inconclusive)
- AC50 (Cytochrome P450 3A4): 28.2 µM (inconclusive)
- AC50 (Cytochrome P450 2C9): 12.6 µM (inconclusive)

SMILES: CC1CCOC2(O1)C(=O)Nc1ccccc12 (stereo not given)
- IC50 (Coagulation factor XII): > 50 µM (inactive)

SMILES: O=C(c1ccc2ncsc2c1)N1CCN(c2ccc(O)cc2)CC1
- IC50 (Large T antigen): 14.4 µM (active)
- AC50 (Cytochrome P450 2C19): 20 µM (inconclusive)
- AC50 (Cytochrome P450 3A4): 3.55 µM (inconclusive)
- AC50 (Cytochrome P450 2C9): 1.78 µM (inconclusive)

SMILES: COC(=O)CC1C(=O)NCCN1C(=S)Nc1cccc(C)c1 (stereo not given)
- IC50 (Coagulation factor XII): > 50 µM (inactive)

Reference: ChEMBL document CHEMBL1201862, “PubChem BioAssay data set” (2004)
